One test concerns HCC827 cells. The experiment in a line: Inhibition of cell proliferation, HCC827 (CCK-8, 72 h). The class given is cell-based. The following applies: Homo sapiens, 72 h incubation. The procedure, abridged:
(§1)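 BT474 and HCC827 seeded at 10,000 and 3000 cells/well respectively, cultured overnight, then exposed to 10-point 3-fold compound dilutions (top stock 10 mM; 0.25% DMSO final) for 72 h. Viability by CCK-8, OD450; survival normalised to untreated and cell-free blanks, IC50 from curve fit.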

The target in another test is EGFR kinase (Homo sapiens (Human), UniProt P00533). Briefly: Inhibition of EGFR kinase activity (ULight-labeled JAK-1 (Tyr1023) peptide substrate). Format: biochemical. Particulars: EGFR kinase 0.35 nM, ATP 150 μM, 2 hours. In a few lines:
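TR-FRET kinase assay: 0.35 nM EGFR, 150 μM ATP, 100 nM substrate, 2 h at room temperature in the dark after 5 min enzyme-compound preincubation, 1% DMSO. Compounds tested as 11-point 3-fold series, 2.5 μM to 0.042 nM final, duplicate; IC50 from 665/615 nm ratio-based inhibition.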

The target of a further test is HER2 kinase (Homo sapiens (Human), UniProt P04626). The experiment in a line: Inhibition of HER2 kinase activity (ULight-labeled PolyGT substrate). Format: biochemical. Particulars: HER2 kinase 10 nM, ATP 10 μM, 2 hours. In a few lines:
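HER2 kinase at 10 nM with 10 μM ATP and 100 nM ULight-PolyGT, 5 min enzyme–compound preincubation, then 2 h reaction at room temperature in the dark. Compounds at 11 3-fold concentrations, 2.5 μM top to 0.042 nM, 1% DMSO, duplicates. TR-FRET 665/615 ratio; IC50 from inhibition versus DMSO and no-compound controls.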

In another test the test system is BT474 cells. The experiment in a line: Inhibition of cell proliferation, BT474 (CCK-8, 72 h). The following applies: Homo sapiens, BT-474, 72 h incubation. The class given is cell-based. The procedure, abridged: as §1

Experimental findings from patent US11548900B2, “Oxazino-quinazoline and oxazino-quinoline type compound, preparation method and uses thereof” (BEIJING SCITECH-MQ PHARMACEUTICALS LIMITED, priority 2018, dated 2023) are described below.

Each structure is given as a SMILES string.

Sequence of HER2 kinase (P04626 23-1255): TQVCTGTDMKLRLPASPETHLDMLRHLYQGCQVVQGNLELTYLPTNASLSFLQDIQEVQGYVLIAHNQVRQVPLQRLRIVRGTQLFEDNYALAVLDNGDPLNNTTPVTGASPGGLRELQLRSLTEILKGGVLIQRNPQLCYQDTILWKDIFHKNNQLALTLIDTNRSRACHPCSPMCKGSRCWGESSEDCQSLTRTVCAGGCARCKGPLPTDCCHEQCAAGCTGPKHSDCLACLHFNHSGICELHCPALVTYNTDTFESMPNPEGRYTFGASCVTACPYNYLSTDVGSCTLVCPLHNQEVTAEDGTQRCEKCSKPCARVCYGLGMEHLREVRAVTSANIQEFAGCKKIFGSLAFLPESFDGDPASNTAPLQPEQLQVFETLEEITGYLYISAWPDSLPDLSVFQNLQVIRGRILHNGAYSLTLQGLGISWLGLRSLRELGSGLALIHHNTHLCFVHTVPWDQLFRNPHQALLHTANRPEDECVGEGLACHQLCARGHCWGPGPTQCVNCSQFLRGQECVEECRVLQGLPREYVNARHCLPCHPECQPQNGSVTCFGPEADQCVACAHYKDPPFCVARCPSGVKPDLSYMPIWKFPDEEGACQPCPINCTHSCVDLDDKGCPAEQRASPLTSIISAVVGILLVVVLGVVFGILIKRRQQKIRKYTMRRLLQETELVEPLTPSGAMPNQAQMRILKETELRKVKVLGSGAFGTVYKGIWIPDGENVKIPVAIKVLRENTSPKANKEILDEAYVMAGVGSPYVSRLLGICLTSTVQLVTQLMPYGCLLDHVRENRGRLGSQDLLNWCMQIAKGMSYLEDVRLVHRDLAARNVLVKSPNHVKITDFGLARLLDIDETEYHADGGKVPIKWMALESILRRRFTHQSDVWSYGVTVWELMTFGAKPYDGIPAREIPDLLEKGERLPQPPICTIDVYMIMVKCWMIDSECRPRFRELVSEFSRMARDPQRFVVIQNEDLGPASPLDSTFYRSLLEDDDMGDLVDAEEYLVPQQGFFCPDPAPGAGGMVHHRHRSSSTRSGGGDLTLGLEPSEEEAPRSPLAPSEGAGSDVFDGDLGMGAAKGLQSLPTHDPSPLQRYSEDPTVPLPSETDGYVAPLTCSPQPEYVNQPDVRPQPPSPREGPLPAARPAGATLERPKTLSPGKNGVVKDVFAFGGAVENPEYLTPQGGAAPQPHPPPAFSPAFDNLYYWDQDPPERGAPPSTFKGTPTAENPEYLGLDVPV
Sequence of EGFR kinase (P00533 25-1210): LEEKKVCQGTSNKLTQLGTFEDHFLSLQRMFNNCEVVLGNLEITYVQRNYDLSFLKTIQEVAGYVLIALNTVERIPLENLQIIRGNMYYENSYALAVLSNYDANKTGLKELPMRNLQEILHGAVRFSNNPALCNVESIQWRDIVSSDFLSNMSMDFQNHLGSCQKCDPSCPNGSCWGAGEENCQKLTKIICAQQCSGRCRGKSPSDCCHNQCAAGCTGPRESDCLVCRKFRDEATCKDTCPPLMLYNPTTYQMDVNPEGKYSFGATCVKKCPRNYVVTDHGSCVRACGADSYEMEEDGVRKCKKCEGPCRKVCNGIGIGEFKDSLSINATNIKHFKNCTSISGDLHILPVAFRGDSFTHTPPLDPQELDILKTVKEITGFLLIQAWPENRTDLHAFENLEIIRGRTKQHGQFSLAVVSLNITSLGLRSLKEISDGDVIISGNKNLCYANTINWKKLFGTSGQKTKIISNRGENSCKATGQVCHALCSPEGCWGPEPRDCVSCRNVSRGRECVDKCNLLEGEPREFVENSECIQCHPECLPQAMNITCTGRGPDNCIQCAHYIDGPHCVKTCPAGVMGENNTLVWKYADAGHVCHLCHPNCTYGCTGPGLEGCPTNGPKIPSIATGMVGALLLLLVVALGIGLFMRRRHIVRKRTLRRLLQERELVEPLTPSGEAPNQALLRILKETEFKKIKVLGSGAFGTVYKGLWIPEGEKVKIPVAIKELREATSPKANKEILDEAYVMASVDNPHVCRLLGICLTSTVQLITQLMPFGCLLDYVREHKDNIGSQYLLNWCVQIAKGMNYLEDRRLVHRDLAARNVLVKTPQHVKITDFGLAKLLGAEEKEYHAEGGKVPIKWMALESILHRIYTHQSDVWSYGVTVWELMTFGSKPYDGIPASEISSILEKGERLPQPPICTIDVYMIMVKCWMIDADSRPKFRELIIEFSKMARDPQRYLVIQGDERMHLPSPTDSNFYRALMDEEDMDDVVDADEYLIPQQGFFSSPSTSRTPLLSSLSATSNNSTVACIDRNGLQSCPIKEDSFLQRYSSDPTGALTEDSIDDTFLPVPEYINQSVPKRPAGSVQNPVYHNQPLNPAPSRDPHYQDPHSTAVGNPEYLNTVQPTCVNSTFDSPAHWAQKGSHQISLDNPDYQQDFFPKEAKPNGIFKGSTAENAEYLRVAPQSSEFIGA

In general, IC50 refers to the point on the concentration scale where inhibition reaches its midpoint. `CC(C)N(C)C/C=C/C(=O)N1CCOc2c1ccc1ncnc(Nc3ccc(OCc4ccccn4)c(Cl)c3)c21` [Example 111, (E)-1-(10-((3-chloro-4-(pyridin-2-ylmethoxy)phenyl)amino)-2,3-dihydro-4H-[1,4]oxazino[2,3-f]quinazolin-4-yl)-4-(isopropyl(methyl)amino)but-2-en-1-one]: the IC50 in the test on HCC827 cells was 500 to 5000 nM; at EGFR kinase, no more than 50 nM; at HER2 kinase it was no more than 50 nM; with BT474 cells, no more than 50 nM.
